This is an account of results in patent US5977065A, “Bacterial nitroreductase for the reduction of CB1954 and analogues thereof to a cytotoxic form” (Cancer Research Campaign Technology Limited, priority 1991, dated 1999).

The target of series [1] is T1, E. coli B nitroreductase (Escherichia coli, UniProt P38489).
T1 construct: endogenous in cells; host or cells: E. coli B cell paste; endogenous enzyme purified by Phenyl-Sepharose and Q-Sepharose chromatography, not recombinant
Description: Formation of actinomycin D by the nitroreductase upon prodrug V (HPLC). It is filed as biochemical. The following applies: V 100 μM, 500 μM NADH, enzyme 2 μg/ml, pH7, 37° C. As for the experimental part:
Disappearance of the prodrug N-4-nitro-benzyloxycarbonyl-actinomycin D (V) and formation of actinomycin D during incubation with the E. coli B nitroreductase of Example 1 is shown in FIG. 2.

Series [2] in a line: In vivo toxicity of prodrug in mice. The following applies: for Weight as % of Day 0, Day 2 / Weight as % of Day 0, Day 3 / Weight as % of Day 0, Day 7 / Weight as % of Day 0, Day 9: mice. How it is done:
The actinomycin D prodrug (AMDPD) of formula V was tested for toxicity in mice. Groups of 3 mice were given 1, 10 or 100 mg/kg body weight i.p. of AMPD, and two further groups of 3 mice were given 1 and 10 mg/kg body weight i.p. of actinomycin D (AMD) dissolved in arachis oil. A further group of 3 mice were untreated, and a final group of 3 mice were given arachis oil i.p. only.
The body weight of the mice were monitored over 9 days. All mice treated with 10 mg/kg of AMD were dead by day 1. […] In practice, the toxicity of AMDPD is likely to be even lower, since the preparation of AMDPD used contains about 1% unconverted AMD.

The next series has as its target T2, E. coli nitroreductase (Escherichia coli, UniProt P38489).
T2 construct: endogenous in cells; host or cells: E. coli B cell paste; endogenous enzyme purified by Phenyl-Sepharose and Q-Sepharose chromatography, not recombinant
Description: % drug reduction in the V79 incubations, remaining prodrug by HPLC (Table 8). It is filed as biochemical. As for the experimental part: (§1) Generation of cytotoxicity by the action of the E. coli nitroreductase of Example 1 upon the prodrugs 4-[bis(2-chloroethyl)amino]phenylcarbamic acid 4'-nitrobenzyl ester (I where R^1 NH2 =III) and N-4-nitrobenzyloxy-carbonyl-actinomycin D (V) are shown in Table 8.
(§2) The effect of enzyme-activated prodrugs on the survival of V79
(§3) cells. 1 ml volumes of V79 cells (2 × 10^5 /ml) were incubated
(§4) with prodrug, 500 μM NADH, and 10 μg/ml enzyme. After a 2 hour
(§5) incubation at 37° C., the cells were harvested and assayed for
(§6) their colony forming ability, and the supernatant assayed for
(§7) the concentration of remaining prodrug by HPLC.

For a further series, the system named is V79 cells. Briefly: Survival (colony forming ability) of V79 cells with enzyme-activated prodrugs (Table 8). It is filed as cell-based. How it is done: as §1, §2, §3, §4, §5, §6, §7
The target in series [3] is T1, E. coli B nitroreductase. Description: Formation of mitomycin C by the nitroreductase upon prodrug VII (HPLC). It is filed as biochemical. The following applies: VII 100 μM, 500 μM NADH, enzyme 5 μg/ml, pH7, 37° C. As for the experimental part: Prodrug VII (100 μM) and cofactor (500 μM NADH) were incubated with enzyme (5 μg/ml E. coli B nitroreductase of Example 1) in 10 mM sodium phosphate buffer (pH7) in air at 37° C. At various times aliquots (10 μl) were injected onto a Partisphere C18 reverse-phase (150×4.7mm) HPLC column and eluted isocratically (2.0 ml/min) with 50% methanol in water. The eluate was continuously monitored for absorption at 260 and 340 nm and the concentration of the drugs calculated by integration of the peak corresponding to the compound on the HPLC trace.

[4] abbreviates: NR 10 μg/ml + 1 μM prodrug + 500 μM NADH.

T2 sequence (P38489 whole entry): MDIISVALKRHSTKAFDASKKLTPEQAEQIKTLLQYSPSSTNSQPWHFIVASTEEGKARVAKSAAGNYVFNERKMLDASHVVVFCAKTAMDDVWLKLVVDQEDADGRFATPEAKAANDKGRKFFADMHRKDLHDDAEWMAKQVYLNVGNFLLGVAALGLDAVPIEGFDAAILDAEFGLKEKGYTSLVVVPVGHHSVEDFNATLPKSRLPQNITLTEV
T1 sequence (P38489 whole entry): as above

As for `Cc1c2oc3c(C)ccc(C(=O)NC4C(=O)NC(C(C)C)C(=O)N5CCCC5C(=O)N(C)CC(=O)N(C)C(C(C)C)C(=O)OC4C)c3nc-2c(C(=O)NC2C(=O)NC(C(C)C)C(=O)N3CCCC3C(=O)N(C)CC(=O)N(C)C(C(C)C)C(=O)OC2C)c(NC(=O)OCc2ccc([N+](=O)[O-])cc2)c1=O` (stereo not shown) [V, N-4-Nitrobenzyloxycarbonyl-actinomycin D], the “release of actinomycin D from the prodrug” value at E. coli B nitroreductase [1] is “Only when the enzyme was present was actinomycin D released”. Moreover, the “Weight as % of Day 0, Day 2” value in series [2] (dose 1.0 mg/kg i.p.) is given as 102%; in series [2] (dose 10 mg/kg i.p.), 109%; in series [2] (dose 100 mg/kg i.p.), 96.4%. The entries for the “Weight as % of Day 0, Day 3” value in series [2] (dose 1.0 mg/kg i.p.), in series [2] (dose 10 mg/kg i.p.) and in series [2] (dose 100 mg/kg i.p.) were 101%, 105% and 95.6%, respectively. Moreover, the “Weight as % of Day 0, Day 7” value in series [2] (dose 1.0 mg/kg i.p.) came out at 101%; in series [2] (dose 10 mg/kg i.p.), 108%; in series [2] (dose 100 mg/kg i.p.), 95%. Moreover, the “Weight as % of Day 0, Day 9” value in series [2] (dose 1.0 mg/kg i.p.) came to 103%; in series [2] (dose 10 mg/kg i.p.), 110%; in series [2] (dose 100 mg/kg i.p.), 96%. The deaths in series [2] (dose 100 mg/kg i.p., groups of 3 mice, Day 2) is listed as 1 dead. Besides, the “% DRUG REDUCTION” value on E. coli nitroreductase (1 μM prodrug alone) was less than 1.0%; at E. coli nitroreductase (10 μM prodrug alone) it was less than 1.0%; at E. coli nitroreductase (setting [4]), 90.5%; on E. coli nitroreductase (NR 10 μg/ml + 10 μM prodrug + 500 μM NADH) it was 93%. Also, the “% SURVIVAL” value with V79 cells (1 μM prodrug alone) came out at 98.3%; in the series on V79 cells (10 μM prodrug alone) it was 39.3%; in the series with V79 cells (setting [4]), 27.4%.

Take `COC12C(COC(N)=O)C3=C(C(=O)C(C)=C(N)C3=O)N1CC1C2N1C(=O)OCc1ccc([N+](=O)[O-])cc1` (stereo not shown) [VII, N-4-Nitrobenzyloxycarbonyl-mitomycin C]: the “release of mitomycin C from the prodrug” value at E. coli B nitroreductase [3] is reported as “Only in the presence of the enzyme is mitomycin C released”.
